Laboratory results reported in patent US20220281848A1, “PYRAZOLE-SUBSTITUTED PYRROLIDINONES AS HERBICIDES” (FMC Corporation, priority 2019, published 2022).

How the values were obtained:
Assay type in all cases: in vivo
[1] = tested on: redroot pigweed (Amaranthus retroflexus, AMARE); test: Test A post-emergence, redroot pigweed; details: after 13 d
In short: (§1)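 Plants were grown 8 d in a glasshouse (24/16° C day/night, 14 h light, 65% humidity), then sprayed post-emergence at 15.625, 62.5 or 250 g/ha in acetone/water (50:50) with 0.5% Tween 20. Damage was scored visually after 13 d (0 = none, 100 = total).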

[2] = tested on: velvetleaf (Abutilon theophrasti, ABUTH); test: Test A post-emergence, velvetleaf; details: after 13 d
In short: as §1

corn (Zea mays, ZEAMX) = test: Test A pre-emergence, corn; details: after 13 d
In short: (§2)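 Each compound is applied pre-emergence at 15.625, 62.5 or 250 g/ha, one day after seeds are sown in standard soil. Plants are then grown in a glasshouse at 24/16° C. with 14 h light and 65% humidity, and injury is scored 0–100 at 13 d.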

wheat = test: Test D pre-emergence, wheat seed treated with a herbicide safener; details: 100=total damage, 0=no damage
In short: (§3)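 Damage, on a scale where 100 is total and 0 is none, was scored 15 d after post-emergence spraying (about 12-day-old plants) or 20 DAA after pre-emergence spraying (day 1). Maize and wheat came from herbicide-safener-treated seed and were kept in a glasshouse (24/18 or 20/16 °C, 16 h light, 65% humidity). The spray liquid was the test formulation diluted in 0.2% v/v aqueous adjuvant.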

[3] = tested on: ivy-leaved morning glory (Ipomoea hederacea, IPOHE); test: Test A post-emergence, ivy-leaved morning glory; details: after 13 d
In short: as §1

[4] = tested on: velvetleaf (Abutilon theophrasti, ABUTH); test: Test A pre-emergence, velvetleaf; details: after 13 d
In short: as §2

[5] = tested on: barnyardgrass (Echinochloa crus-galli, ECHCG); test: Test A post-emergence, barnyardgrass; details: after 13 d
In short: as §1

[6] = tested on: giant foxtail (Setaria faberi, SETFA); test: Test A pre-emergence, giant foxtail; details: after 13 d
In short: as §2

maize = test: Test D post-emergence, maize seed treated with a herbicide safener
In short: as §3

CN1CC(c2cc(C(F)(F)F)n(C)n2)C(C(=O)Nc2cccc(F)c2F)C1=O (racemic) [Compound 3]
damage to plant (100=total damage; 0=no damage) AMARE ([1]; Post-Emergence at 15.625 g/ha): 0 | damage to plant (100=total damage; 0=no damage) AMARE ([1]; Post-Emergence at 62.5 g/ha): 10 | damage to plant (100=total damage; 0=no damage) AMARE ([1]; Post-Emergence at 250 g/ha): 20 | damage to plant (100=total damage; 0=no damage) ABUTH ([2]; Post-Emergence at 15.625 g/ha): 0 | damage to plant (100=total damage; 0=no damage) ABUTH ([2]; Post-Emergence at 62.5 g/ha): 0 | damage to plant (100=total damage; 0=no damage) ABUTH ([2]; Post-Emergence at 250 g/ha): 0 | damage to plant (100=total damage; 0=no damage) ZEAMX (corn (Zea mays, ZEAMX); Pre-Emergence at 15.625 g/ha): 0 | damage to plant (100=total damage; 0=no damage) ZEAMX (corn (Zea mays, ZEAMX); Pre-Emergence at 62.5 g/ha): 60 | damage to plant (100=total damage; 0=no damage) ZEAMX (corn (Zea mays, ZEAMX); Pre-Emergence at 250 g/ha): 90 | damage to plant, TRZAW (wheat; rate 15, 20 DAA): 0 | damage to plant, TRZAW (wheat; rate 30, 20 DAA): 0 | damage to plant, TRZAW (wheat; rate 60, 20 DAA): 0 | damage to plant, TRZAW (wheat; rate 130, 20 DAA): 0 | damage to plant, TRZAW (wheat; rate 250, 20 DAA): 0 | damage to plant, TRZAW (wheat; rate 500, 20 DAA): 60 | damage to plant (100=total damage; 0=no damage) IPOHE ([3]; Post-Emergence at 15.625 g/ha): 0 | damage to plant (100=total damage; 0=no damage) IPOHE ([3]; Post-Emergence at 62.5 g/ha): 0 | damage to plant (100=total damage; 0=no damage) IPOHE ([3]; Post-Emergence at 250 g/ha): 0 | damage to plant (100=total damage; 0=no damage) ABUTH ([4]; Pre-Emergence at 15.625 g/ha): 0 | damage to plant (100=total damage; 0=no damage) ABUTH ([4]; Pre-Emergence at 62.5 g/ha): 0 | damage to plant (100=total damage; 0=no damage) ABUTH ([4]; Pre-Emergence at 250 g/ha): 10 | damage to plant (100=total damage; 0=no damage) ECHCG ([5]; Post-Emergence at 15.625 g/ha): 90 | damage to plant (100=total damage; 0=no damage) ECHCG ([5]; Post-Emergence at 62.5 g/ha): 90 | damage to plant (100=total damage; 0=no damage) ECHCG ([5]; Post-Emergence at 250 g/ha): 90 | damage to plant (100=total damage; 0=no damage) SETFA ([6]; Pre-Emergence at 15.625 g/ha): 90 | damage to plant (100=total damage; 0=no damage) SETFA ([6]; Pre-Emergence at 62.5 g/ha): 90 | damage to plant (100=total damage; 0=no damage) SETFA ([6]; Pre-Emergence at 250 g/ha): 90 | damage to plant (100=total damage to plant; 0=no damage to plant), ZEAMX (maize; rate 130, evaluated after 15 d): 0 | damage to plant (100=total damage to plant; 0=no damage to plant), ZEAMX (maize; rate 250, evaluated after 15 d): 0 | damage to plant (100=total damage to plant; 0=no damage to plant), ZEAMX (maize; rate 500, evaluated after 15 d): 10
